Test results: patent US7538129B2, “Diazonamide A analog” (Board of Regents, The University of Texas System, priority 2005, dated 2009)
Entries after “also recorded” stand apart in the source; their conditions may differ.

Columns and labels:
Type in all cases: in vivo, mice
PC-3 xenografts = assay: growth inhibition of PC-3 xenografts; conditions: 20 mg/kg; for inhibition of growth of PC-3 xenografts: FIG. 4B; for % Max T/C / Log10 Tumor Cell Kill: PC3 (prostate), IV
Protocol: In FIG. 4B, the squares are the control, the dark circles are the data-points for Compound J and the light diamonds are data-points for paclitaxel.
The details of the protocol for Examples 19 and 20 are as follows:
• PC3 prostrate tumor cells and HCT116 colon tumor cells (acquired from the tumor repository Division of Cancer Treatment and Diagnosis (DCTD) of the NCI • Complete RPMI Media • RPMI (Cat# 11875-085, Invitrogen) • 10% Heat-inactivated (30′ 56° C.) Fetal Bovine Serum (Cat# 100-106, Gemini Bio-Products • 2 mM L-glutamine (Cat# 25030-081, Invitrogen) • 0.1 mM MEM Non-Essential Amino Acids Solution (Cat#11140-050, Invitrogen) • 10 U/ml Penicillin/10 μg/ml Streptomycin (Cat#15140-122, Invitrogen) • 1 mM Sodium Pyruvate (Cat#l 1360-070) • Trypsin-EDTA (Cat#25300-054, Invitrogen) • Ca^2+/Mg^2+-free Phosphate Buffered Saline, 5% dextrose in water • Cell Culture Dish 150 mm×25 mm (Cat# 430599, Coming, Inc.) • 10 and 25 ml pipets, standard pipet-aid, p200 and p1000 pipette tips and standard pipetmen • Athymic NCr-nu/nu nude mice at 6-12 weeks of age, either sex (Strain code: 01B74, NCI Frederick Animal Production Program—suppliers include Charles River Labs and Taconic Farms). Female mice of approximately 7 weeks of age were utilized for existing experiments. • Standard 1 cc tuberculin syringe, 30G½ and 25G⅝ needles (Becton Dickinson) • Falcon 5 ml tubes (Cat#352054) • 50 and 15 ml disposable plastic conical tubes (Falcon or similar vendor) • Trypan Blue Solution (0.4%) (Cat#T8154, Sigma) • Hausser phase contrast hemacytometer (Cat# 02-671-54, Fisher) • Ice bucket • Balance for weighing mice (accurate to 0.2 g) • Vernier calipers • Vivarium facility free from known pathogens (nude mice should be housed in isolation from conventional mice if possible—separate rooms or micro-isolator cages equipped with individual air flow; all animal housing, bedding, water should be autoclaved prior to use; standard irradiated mouse chow should be used; animals should be changed out of cages within laminar flow hood; investigators handling mice should be suitably garbed—disposable gown, bonnet, booties, gloves, mask) • AB-5 (Compound J) compound • Ethyl alcohol, 200 proof (Aaper, MFD 041205) • Cremaphor (Cat# C5135, Sigma) • Paclitaxel (Cat#ANP0010, Polymed Therapeutics) Procedure: • 1) Rapidly thaw PC3 or HCT116 cells (if necessary) in 37° C. water bath. Transfer contents to 9ml complete RPMI media. Spin 5′ at 1200 rpm (240 Xg). Discard media and resuspend pellet in 8 ml complete RPMI media. Plate in 100 mm×25 mm cell culture dish in 5% CO2, 37° C. humidified incubator. • 2) Allow to grow for 5-10 days, splitting (aspirate media, wash with 3-5 ml PBS, add 1 ml trypsin-EDTA, incubate 3-5′ at 37° C., add media to desired volume and transfer to multiple plates) 1:8 to 1:10 every 3-4 days as necessary to allow cells to enter phase of logarithmic growth. • 3) When cells are growing well, begin to expand to 150 mm×25 mm dishes. We use 20 ml of media in a 150 mm dish and use 2 ml of trypsin for splitting. When nearly confluent, there should be 2×10^7 cells/150 mm dish. • 4) Plan ahead to time arrival of nu/nu mice such that they can acclimate to animal facility for 1 week prior to injection of tumor cells. […] Plan to inject 10 million cells/mouse and allow for loss of cells/volume during injection process. That is, if 30 mice are to be injected, plan to harvest cells sufficient for at least 35 injections—35×10 million cells=3.5×10^8 cells. In the existing HCT116 experiment, 7.5×10^6 cells were injected per mouse. Five mice per group were utilized for AB-5 treatment and four mice per group were utilized for the control and paclitaxel treatments. In the existing PC3 experiment, 10^7 cells were injected. Six mice per group were utilized for the control treatment and five mice per group were utilized for the AB-5 and paclitaxel treatments. […]

[1] = test system: neutrophils in peripheral blood; assay: neutrophil count in peripheral blood; conditions: for neutrophil count in peripheral blood, ANC (cell/ml): FIG. 5B
Excerpt: (§1) The details of the protocol for Examples 19 and 20 are as follows: […]

[2] = test system: neutrophils (GR1+ cells) in bone marrow; assay: neutrophil counts in bone marrow; conditions: for neutrophil counts in bone marrow: 5 mg/kg; for neutrophil counts in bone marrow (number of GR1+ cells in one femu): 20 mg/kg, FIG. 5A
Excerpt: In addition to measuring the affect on tumors, the effect of paclitaxel and Compound J on neutrophils in […] and blood were obtained. […] The data are provided as the number of GR1+ cells in one femu.
as §1

Row | Structure (SMILES) | inhibition of growth of PC-3 xenografts (PC-3 xenografts) | % Max T/C (PC-3 xenografts) | Log10 Tumor Cell Kill (PC-3 xenografts) | neutrophil count in peripheral blood, ANC (cell/ml) ([1]; 5 mg/kg) | neutrophil count in peripheral blood, ANC (cell/ml) ([1]; 20 mg/kg) | neutrophil proliferation or cell counts in vivo ([1]; FIG. 5B legend) | neutrophil counts in bone marrow [2] | neutrophil counts in bone marrow (number of GR1+ cells in one femu) [2] | neutrophil proliferation or cell counts in vivo ([2]; FIG. 5A legend)
1 | CC(C)[C@H](O)C(=O)N[C@H]1Cc2ccc3c(c2)[C@]24C5=C(N=C(O5)[C@H](C(C)C)NC1=O)c1ncc(o1)-c1c[nH]c5cccc(c15)-c1cccc2c1NC4O3 (stereo in doubt) [Compound J] | comparable to paclitaxel; also recorded: significantly inhibited tumor growth | 0.3% | 3.4 | no effect; also recorded: not significantly affected | no effect; also recorded: not significantly affected | no effect | no effect | no effect | no effect
2 | CC(=O)O[C@H]1C(=O)[C@@]2(C)[C@H]([C@H](OC(=O)c3ccccc3)[C@]3(O)C[C@H](OC(=O)[C@H](O)[C@@H](NC(=O)c4ccccc4)c4ccccc4)C(C)=C1C3(C)C)[C@]1(OC(C)=O)CO[C@@H]1C[C@@H]2O [paclitaxel, reference compound] | significantly inhibited tumor growth | 0% | 3.4 | reduction of neutrophil counts; also recorded: greatly lowered | reduction of neutrophil counts; also recorded: greatly lowered | – | reduction of neutrophil counts | reduction of neutrophil counts; also recorded: significantly lowered | –
